Laboratory results: US20230117034A1, “PYRAZOLOTRIAZINES” (Bayer Aktiengesellschaft, priority 2019, published 2023)

biological target: CDK12/CycK (Homo sapiens, UniProt Q9NYV4); experiment: CDK12/CycK high ATP kinase assay (TR-FRET, 2 mM ATP); type: biochemical; settings: 2 mM ATP (high ATP); median; read-out: CDK12/CyclinK, 2 mM ATP (high ATP), IC50-[mol/l] (median)
Outline: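 His-tagged human CDK12/CycK (~0.75 nM) pre-incubated 15 min with compound, then 60 min at 22 °C with 2 mM ATP and 1 µM biotinylated peptide (HEPES pH 7.5, 20 mM MgCl2). EDTA stop; phospho-Ser62 antibody/Eu anti-rabbit and streptavidin-XL665 TR-FRET, 665/620 nm ratio normalised to give IC50.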

Sequence of CDK12/CycK (Q9NYV4 with tags, fused parts or gaps): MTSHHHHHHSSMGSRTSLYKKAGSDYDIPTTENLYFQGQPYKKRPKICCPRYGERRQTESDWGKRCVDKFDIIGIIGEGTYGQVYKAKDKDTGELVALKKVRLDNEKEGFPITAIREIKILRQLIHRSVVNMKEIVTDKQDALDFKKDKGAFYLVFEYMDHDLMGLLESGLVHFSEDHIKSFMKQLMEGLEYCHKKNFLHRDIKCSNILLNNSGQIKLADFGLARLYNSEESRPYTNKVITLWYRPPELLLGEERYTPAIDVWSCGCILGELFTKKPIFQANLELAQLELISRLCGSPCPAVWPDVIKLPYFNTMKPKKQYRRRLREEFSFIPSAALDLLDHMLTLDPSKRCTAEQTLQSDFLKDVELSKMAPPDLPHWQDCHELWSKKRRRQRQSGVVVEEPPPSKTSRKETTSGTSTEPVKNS
Sequence of CDK12/CycK (O75909 1-300 partner limits assumed): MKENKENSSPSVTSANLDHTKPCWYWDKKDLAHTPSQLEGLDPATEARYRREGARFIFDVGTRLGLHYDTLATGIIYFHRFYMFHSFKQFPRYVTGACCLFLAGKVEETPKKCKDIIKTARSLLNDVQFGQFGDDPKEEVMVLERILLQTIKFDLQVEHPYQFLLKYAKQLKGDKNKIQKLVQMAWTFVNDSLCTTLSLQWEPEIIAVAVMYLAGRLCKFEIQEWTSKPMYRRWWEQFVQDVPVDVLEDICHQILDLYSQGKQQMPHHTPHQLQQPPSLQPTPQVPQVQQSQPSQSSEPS

IC50 [µM]	Structure (SMILES)
> 20	CCNC1CCN(c2nc(NCc3nc4ccccc4[nH]3)n3ncc(Br)c3n2)CC1 [Example 300]
> 19.7	Fc1ccc2[nH]c(CNc3nc(N4CCOCC4)nc4c([C@@H]5CC5(F)F)cnn34)nc2c1 (single isomer, unassigned) [Example 315, 8-[(1R or S)-2,2-difluorocyclopropyl]-N-[(5-fluoro-1H-benzimidazol-2-yl)methyl]-2-(morpholin-4-yl)pyrazolo[1,5-a][1,3,5]triazin-4-amine]
12.5	OCC1CN(c2nc(NCc3nc4ccccc4[nH]3)n3ncc(Br)c3n2)C1 [Example 304, [1-(4-{[(1H-benzimidazol-2-yl)methyl]amino}-8-bromopyrazolo[1,5-a][1,3,5]triazin-2-yl)azetidin-3-yl]methanol]
> 20	NC1CCN(c2nc(NCc3nc4ccccc4[nH]3)n3ncc(Br)c3n2)CC1 [Example 256, 2-(4-aminopiperidin-1-yl)-N-[(1H-benzimidazol-2-yl)methyl]-8-bromopyrazolo[1,5-a][1,3,5]triazin-4-amine]
> 20	CN1CCN(c2nc(NCc3nc4cc(F)c(F)cc4[nH]3)n3ncc(C4CC4)c3n2)CC1 [Example 311, 8-cyclopropyl-N-[(5,6-difluoro-1H-benzimidazol-2-yl)methyl]-2-(4-methylpiperazin-1-yl)pyrazolo[1,5-a][1,3,5]triazin-4-amine]
8.31	CN1CCN(c2nc(NCc3nc4cc(Cl)ccc4[nH]3)n3ncc(C(F)(F)F)c3n2)CC1 [Example 298, N-[(5-chloro-1H-benzimidazol-2-yl)methyl]-2-(4-methylpiperazin-1-yl)-8-(trifluoromethyl)pyrazolo[1,5-a][1,3,5]triazin-4-amine]
13.7	Brc1cnn2c(NCc3nc4ccccc4[nH]3)nc(N3C[C@@H]4C[C@H]3CN4)nc12 [Example 270, N-[(1H-benzimidazol-2-yl)methyl]-8-bromo-2-[(1S,4S)-2,5-diazabicyclo[2.2.1]heptan-2-yl]pyrazolo[1,5-a][1,3,5]triazin-4-amine]
6.89	c1ccc2[nH]c(CNc3nc(N4CCOCC4)nc4c(C5CCC5)cnn34)nc2c1 [Example 263, N-[(1H-benzimidazol-2-yl)methyl]-8-cyclobutyl-2-(morpholin-4-yl)pyrazolo[1,5-a][1,3,5]triazin-4-amine]
0.829	CN(CC(C)(C)O)c1nc(NCc2nc3c(F)cccc3[nH]2)n2ncc(C3CC3)c2n1 [Example 295, 1-[(8-cyclopropyl-4-{[(4-fluoro-1H-benzimidazol-2-yl)methyl]amino}pyrazolo[1,5-a][1,3,5]triazin-2-yl)(methyl)amino]-2-methylpropan-2-ol]
3.48	NC1(C(F)(F)F)CCN(c2nc(NCc3nc4ccccc4[nH]3)n3ncc(Br)c3n2)C1 (stereo not shown) [Example 266, 2-[3-amino-3-(trifluoromethyl)pyrrolidin-1-yl]-N-(1H-benzimidazol-2-ylmethyl)-8-bromo-pyrazolo[1,5-a][1,3,5]triazin-4-amine]
9.92	Fc1ccc2[nH]c(CNc3nc(N4CCOCC4)nc4c(C5CC5(F)F)cnn34)nc2c1 (single isomer, unassigned) [Example 314, 8-[(1R or S)-2,2-difluorocyclopropyl]-N-[(5-fluoro-1H-benzimidazol-2-yl)methyl]-2-(morpholin-4-yl)pyrazolo[1,5-a][1,3,5]triazin-4-amine]
1.71	Fc1cccc2[nH]c(CNc3nc(N4CCOCC4)nc4c(CC(F)(F)F)cnn34)nc12 [Example 303, N-[(4-fluoro-1H-benzimidazol-2-yl)methyl]-2-(morpholin-4-yl)-8-(2,2,2-trifluoroethyl)pyrazolo[1,5-a][1,3,5]triazin-4-amine]
1.85	CN(CC(C)(C)O)c1nc(NCc2nc3cc(Cl)c(Cl)cc3[nH]2)n2ncc(C3CC3)c2n1 [Example 306, 1-[(8-cyclopropyl-4-{[(5,6-dichloro-1H-benzimidazol-2-yl)methyl]amino}pyrazolo[1,5-a][1,3,5]triazin-2-yl)(methyl)amino]-2-methylpropan-2-ol]
> 20	c1ccc2[nH]c(CNc3nc(N4C[C@@H]5C[C@H]4CO5)nc4c(C5CC5)cnn34)nc2c1 [Example 254, N-[(1H-benzimidazol-2-yl)methyl]-8-cyclopropyl-2-[(1S,4S)-2-oxa-5-azabicyclo[2.2.1]heptan-5-yl]pyrazolo[1,5-a][1,3,5]triazin-4-amine]
> 8.95	CC1(O)CCN(c2nc(NCc3nc4ccccc4[nH]3)n3ncc(Br)c3n2)C1 (single isomer, unassigned) [Example 282, (3R or S)-1-(4-{[(1H-benzimidazol-2-yl)methyl]amino}-8-bromopyrazolo[1,5-a][1,3,5]triazin-2-yl)-3-methylpyrrolidin-3-ol]
> 5.71	Fc1ccc2[nH]c(CNc3nc(N4CCOCC4)nc4c(C5CCCC5)cnn34)nc2c1F [Example 262, 8-cyclopentyl-N-[(4,5-difluoro-1H-benzimidazol-2-yl)methyl]-2-(morpholin-4-yl)pyrazolo[1,5-a][1,3,5]triazin-4-amine]
2.59	N[C@H]1CN(c2nc(NCc3nc4ccccc4[nH]3)n3ncc(Br)c3n2)CC12CC2 [Example 259, 2-[(7R)-7-amino-5-azaspiro[2.4]heptan-5-yl]-N-[(1H-benzimidazol-2-yl)methyl]-8-bromopyrazolo[1,5-a][1,3,5]triazin-4-amine]
0.972	N[C@@H]1CN(c2nc(NCc3nc4ccccc4[nH]3)n3ncc(Br)c3n2)CC12CC2 [Example 251, 2-[(7S)-7-amino-5-azaspiro[2.4]heptan-5-yl]-N-[(1H-benzimidazol-2-yl)methyl]-8-bromopyrazolo[1,5-a][1,3,5]triazin-4-amine]
> 17	c1ccc2[nH]c(CNc3nc(N4C[C@@H]5CCCN[C@@H]5C4)nc4c(C5CC5)cnn34)nc2c1 [Example 249, N-[(1H-benzimidazol-2-yl)methyl]-8-cyclopropyl-2-[(4aS,7aS)-octahydro-6H-pyrrolo[3,4-b]pyridin-6-yl]pyrazolo[1,5-a][1,3,5]triazin-4-amine]
0.666	CN(CC(C)(C)O)c1nc(NCc2nc3c(F)c(F)ccc3[nH]2)n2ncc(C3CC3)c2n1 [Example 292, 1-[(8-cyclopropyl-4-{[(4,5-difluoro-1H-benzimidazol-2-yl)methyl]amino}pyrazolo[1,5-a][1,3,5]triazin-2-yl)(methyl)amino]-2-methylpropan-2-ol]
4.79	COc1cccc2[nH]c(CNc3nc(N4CCOCC4)nc4c(CC(F)(F)F)cnn34)nc12 [Example 277, N-[(4-methoxy-1H-benzimidazol-2-yl)methyl]-2-(morpholin-4-yl)-8-(2,2,2-trifluoroethyl)pyrazolo[1,5-a][1,3,5]triazin-4-amine]
0.0395	Fc1cccc2[nH]c(CNc3nc(N4CCOCC4)nc4c(C(F)(F)F)cnn34)nc12 [Example 274, N-[(4-fluoro-1H-benzimidazol-2-yl)methyl]-2-(morpholin-4-yl)-8-(trifluoromethyl)pyrazolo[1,5-a][1,3,5]triazin-4-amine]
5.96	FC(F)(F)Cc1cnn2c(NCc3nc4cc(Cl)c(Cl)cc4[nH]3)nc(N3CCOCC3)nc12 [Example 302, N-[(5,6-dichloro-1H-benzimidazol-2-yl)methyl]-2-(morpholin-4-yl)-8-(2,2,2-trifluoroethyl)pyrazolo[1,5-a][1,3,5]triazin-4-amine]
0.979	CN(CC(C)(C)O)c1nc(NCc2nc3cc(F)c(Cl)cc3[nH]2)n2ncc(C3CC3)c2n1 [Example 317, 1-[(4-{[(6-chloro-5-fluoro-1H-benzimidazol-2-yl)methyl]amino}-8-cyclopropylpyrazolo[1,5-a][1,3,5]triazin-2-yl)(methyl)amino]-2-methylpropan-2-ol]
14.7	c1ccc2[nH]c(CNc3nc(N4CCNCC4)nc4c(C5CC5)cnn34)nc2c1 [Example 247, N-[(1H-benzimidazol-2-yl)methyl]-8-cyclopropyl-2-(piperazin-1-yl)pyrazolo[1,5-a][1,3,5]triazin-4-amine]
0.117	COc1ccc2[nH]c(CNc3nc(N4CCOCC4)nc4c(C(F)(F)F)cnn34)nc2c1 [Example 257, N-[(5-methoxy-1H-benzimidazol-2-yl)methyl]-2-(morpholin-4-yl)-8-(trifluoromethyl)pyrazolo[1,5-a][1,3,5]triazin-4-amine]
> 19.8	CC1(N)CCN(c2nc(NCc3nc4ccccc4[nH]3)n3ncc(Br)c3n2)CC1 [Example 290, 2-(4-amino-4-methylpiperidin-1-yl)-N-[(1H-benzimidazol-2-yl)methyl]-8-bromopyrazolo[1,5-a][1,3,5]triazin-4-amine]
14	FC1(F)CC1c1cnn2c(NCc3nc4ccccc4[nH]3)nc(N3CCOCC3)nc12 (stereo not shown) [Example 279, N-[(1H-benzimidazol-2-yl)methyl]-8-(2,2-difluorocyclopropyl)-2-(morpholin-4-yl)pyrazolo[1,5-a][1,3,5]triazin-4-amine]
1.36	Fc1cc2nc(CNc3nc(N4CCOCC4)nc4c(C5CC5)cnn34)[nH]c2cc1F [Example 318, 8-cyclopropyl-N-[(5,6-difluoro-1H-benzimidazol-2-yl)methyl]-2-(morpholin-4-yl)pyrazolo[1,5-a][1,3,5]triazin-4-amine]

Structure (SMILES)	IC50 [µM]
Fc1cccc2[nH]c(CNc3nc(N4C[C@H]5CC[C@@H](C4)N5)nc4c(C5CC5)cnn34)nc12 [Example 296, 8-cyclopropyl-2-[(1R,5S)-3,8-diazabicyclo[3.2.1]octan-3-yl]-N-[(4-fluoro-1H-benzimidazol-2-yl)methyl]pyrazolo[1,5-a][1,3,5]triazin-4-amine]	2.48
N[C@@H]1[C@@H]2C[C@H]1CN(c1nc(NCc3nc4ccccc4[nH]3)n3ncc(Br)c3n1)C2 [Example 289, 2-[(1R,5S,6s)-6-amino-3-azabicyclo[3.1.1]heptan-3-yl]-N-[(1H-benzimidazol-2-yl)methyl]-8-bromopyrazolo[1,5-a][1,3,5]triazin-4-amine]	7
